Measured values published in PubChem BioAssay (NCI).
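1) Cells in 96-well plates. 2) Compound, 48 h, 5 concentrations. 3) Linear interpolation between surrounding doses. 4) Unreached endpoint = highest concentration. Here, GI50 denotes the concentration required for 50% inhibition of growth. TGI is the concentration that stops growth completely.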

These compounds were tested on NCI-H460 lung (assay: DTP human tumour cell line panel, 48 h).

Structure (SMILES) | TGI
Cc1ccc(-c2c(C#N)c(-c3ccc(C)cc3)n(NS(=O)(=O)c3ccccc3)c(=O)c2C#N)cc1 | > 100 µM
C[n+]1c2ccc(Cl)cc2nc2cc(-c3ccccc3)ccc21 | 67.3 µM
COc1cc(C2C3C=CC=C4CC=CC(=C43)C3CCC(=O)N32)cc(OC)c1OC (stereo not drawn) | > 100 µM

Each compound was assayed on NCI-H522 lung (assay: DTP human tumour cell line panel, 48 h).

Structure (SMILES) | GI50 | TGI
CC1=C(C(=O)Nc2ccc(F)c(Cl)c2)C(c2ccccc2O)NC(=S)N1 (stereo not drawn) | > 50 µM | > 50 µM
c1ccc(N=C(N2CCCC2)N(CCN2CCCC2)c2ccccc2)cc1 | – | > 100 µM
Cc1cc(C)c2c(n1)sc1c(Nc3ccc(Cl)cc3)ncnc12 | < 0.01 µM | > 100 µM
COc1cc(/C=C/C(=O)c2ccc(O)c(OC)c2)ccc1O | – | 32.3 µM
Cc1ccc(-c2c(C#N)c(-c3ccc(C)cc3)n(NS(=O)(=O)c3ccccc3)c(=O)c2C#N)cc1 | – | > 100 µM
C[n+]1c2ccc(Cl)cc2nc2cc(-c3ccccc3)ccc21 | – | 37.9 µM
COc1cc(C2C3C=CC=C4CC=CC(=C43)C3CCC(=O)N32)cc(OC)c1OC (stereo not drawn) | – | > 100 µM

These compounds were tested on NCI/ADR-RES ovarian (assay: DTP human tumour cell line panel, 48 h).

Structure (SMILES) | GI50 | TGI
CC1=C(C(=O)Nc2ccc(F)c(Cl)c2)C(c2ccccc2O)NC(=S)N1 (stereo not drawn) | > 50 µM | > 50 µM
c1ccc(N=C(N2CCCC2)N(CCN2CCCC2)c2ccccc2)cc1 | – | > 100 µM
Cc1cc(C)c2c(n1)sc1c(Nc3ccc(Cl)cc3)ncnc12 | < 0.01 µM | > 100 µM
Cc1ccc(-c2c(C#N)c(-c3ccc(C)cc3)n(NS(=O)(=O)c3ccccc3)c(=O)c2C#N)cc1 | – | > 100 µM
C[n+]1c2ccc(Cl)cc2nc2cc(-c3ccccc3)ccc21 | – | > 100 µM
COc1cc(C2C3C=CC=C4CC=CC(=C43)C3CCC(=O)N32)cc(OC)c1OC (stereo not drawn) | – | 69.8 µM

The compounds below were run on OVCAR-3 ovarian (assay: DTP human tumour cell line panel, 48 h).

Structure (SMILES) | GI50 | TGI
CC1=C(C(=O)Nc2ccc(F)c(Cl)c2)C(c2ccccc2O)NC(=S)N1 (stereo not drawn) | 12.6 µM | 42.6 µM
c1ccc(N=C(N2CCCC2)N(CCN2CCCC2)c2ccccc2)cc1 | – | > 100 µM
Cc1cc(C)c2c(n1)sc1c(Nc3ccc(Cl)cc3)ncnc12 | 2.39 µM | > 100 µM
COc1cc(/C=C/C(=O)c2ccc(O)c(OC)c2)ccc1O | – | 72 µM
C[n+]1c2ccc(Cl)cc2nc2cc(-c3ccccc3)ccc21 | – | 6.44 µM
COc1cc(C2C3C=CC=C4CC=CC(=C43)C3CCC(=O)N32)cc(OC)c1OC (stereo not drawn) | – | > 100 µM

The compounds below were run on OVCAR-4 ovarian (assay: DTP human tumour cell line panel, 48 h).

Structure (SMILES) | TGI | GI50
c1ccc(N=C(N2CCCC2)N(CCN2CCCC2)c2ccccc2)cc1 | > 100 µM | –
Cc1cc(C)c2c(n1)sc1c(Nc3ccc(Cl)cc3)ncnc12 | > 100 µM | > 100 µM
COc1cc(/C=C/C(=O)c2ccc(O)c(OC)c2)ccc1O | 71.4 µM | –
Cc1ccc(-c2c(C#N)c(-c3ccc(C)cc3)n(NS(=O)(=O)c3ccccc3)c(=O)c2C#N)cc1 | > 100 µM | –
C[n+]1c2ccc(Cl)cc2nc2cc(-c3ccccc3)ccc21 | 40.5 µM | –

What follows are compounds tested on OVCAR-5 ovarian (assay: DTP human tumour cell line panel, 48 h).

Structure (SMILES) | GI50 | TGI
CC1=C(C(=O)Nc2ccc(F)c(Cl)c2)C(c2ccccc2O)NC(=S)N1 (stereo not drawn) | > 50 µM | > 50 µM
c1ccc(N=C(N2CCCC2)N(CCN2CCCC2)c2ccccc2)cc1 | – | > 100 µM
Cc1cc(C)c2c(n1)sc1c(Nc3ccc(Cl)cc3)ncnc12 | < 0.0125 µM | > 100 µM
COc1cc(/C=C/C(=O)c2ccc(O)c(OC)c2)ccc1O | – | 50.8 µM
Cc1ccc(-c2c(C#N)c(-c3ccc(C)cc3)n(NS(=O)(=O)c3ccccc3)c(=O)c2C#N)cc1 | – | > 100 µM
C[n+]1c2ccc(Cl)cc2nc2cc(-c3ccccc3)ccc21 | – | 55.5 µM
COc1cc(C2C3C=CC=C4CC=CC(=C43)C3CCC(=O)N32)cc(OC)c1OC (stereo not drawn) | – | > 100 µM

What follows are compounds tested on OVCAR-8 ovarian (assay: DTP human tumour cell line panel, 48 h).

Structure (SMILES) | GI50 | TGI
CC1=C(C(=O)Nc2ccc(F)c(Cl)c2)C(c2ccccc2O)NC(=S)N1 (stereo not drawn) | 12.9 µM | > 50 µM
c1ccc(N=C(N2CCCC2)N(CCN2CCCC2)c2ccccc2)cc1 | – | > 100 µM
Cc1cc(C)c2c(n1)sc1c(Nc3ccc(Cl)cc3)ncnc12 | < 0.01 µM | > 100 µM
Cc1ccc(-c2c(C#N)c(-c3ccc(C)cc3)n(NS(=O)(=O)c3ccccc3)c(=O)c2C#N)cc1 | – | > 100 µM
C[n+]1c2ccc(Cl)cc2nc2cc(-c3ccccc3)ccc21 | – | 16 µM
COc1cc(C2C3C=CC=C4CC=CC(=C43)C3CCC(=O)N32)cc(OC)c1OC (stereo not drawn) | – | > 100 µM

The compounds below were run on PC-3 prostate (assay: DTP human tumour cell line panel, 48 h).

Structure (SMILES) | GI50 | TGI
CC1=C(C(=O)Nc2ccc(F)c(Cl)c2)C(c2ccccc2O)NC(=S)N1 (stereo not drawn) | 40.6 µM | > 50 µM
c1ccc(N=C(N2CCCC2)N(CCN2CCCC2)c2ccccc2)cc1 | – | > 100 µM
Cc1cc(C)c2c(n1)sc1c(Nc3ccc(Cl)cc3)ncnc12 | 0.199 µM | > 100 µM
Cc1ccc(-c2c(C#N)c(-c3ccc(C)cc3)n(NS(=O)(=O)c3ccccc3)c(=O)c2C#N)cc1 | – | > 100 µM
C[n+]1c2ccc(Cl)cc2nc2cc(-c3ccccc3)ccc21 | – | 47.3 µM
COc1cc(C2C3C=CC=C4CC=CC(=C43)C3CCC(=O)N32)cc(OC)c1OC (stereo not drawn) | – | > 100 µM

These compounds were tested on RPMI-8226 leukemia (assay: DTP human tumour cell line panel, 48 h).

Structure (SMILES) | GI50 | TGI
CC1=C(C(=O)Nc2ccc(F)c(Cl)c2)C(c2ccccc2O)NC(=S)N1 (stereo not drawn) | 21.6 µM | > 50 µM
c1ccc(N=C(N2CCCC2)N(CCN2CCCC2)c2ccccc2)cc1 | – | > 100 µM
Cc1cc(C)c2c(n1)sc1c(Nc3ccc(Cl)cc3)ncnc12 | 0.0197 µM | > 100 µM
Cc1ccc(-c2c(C#N)c(-c3ccc(C)cc3)n(NS(=O)(=O)c3ccccc3)c(=O)c2C#N)cc1 | – | 38.8 µM
COc1cc(C2C3C=CC=C4CC=CC(=C43)C3CCC(=O)N32)cc(OC)c1OC (stereo not drawn) | – | > 100 µM

The compounds below were run on RXF 393 renal (assay: DTP human tumour cell line panel, 48 h).

Structure (SMILES) | GI50 | TGI
CC1=C(C(=O)Nc2ccc(F)c(Cl)c2)C(c2ccccc2O)NC(=S)N1 (stereo not drawn) | 2150 nM | > 50 µM
Cc1cc(C)c2c(n1)sc1c(Nc3ccc(Cl)cc3)ncnc12 | 19.5 nM | 0.0898 µM
Cc1ccc(-c2c(C#N)c(-c3ccc(C)cc3)n(NS(=O)(=O)c3ccccc3)c(=O)c2C#N)cc1 | – | > 100 µM
C[n+]1c2ccc(Cl)cc2nc2cc(-c3ccccc3)ccc21 | – | 55.2 µM

These compounds were tested on SF-268 CNS (assay: DTP human tumour cell line panel, 48 h).

Structure (SMILES) | GI50 | TGI
CC1=C(C(=O)Nc2ccc(F)c(Cl)c2)C(c2ccccc2O)NC(=S)N1 (stereo not drawn) | 9.43 µM | > 50 µM
Cc1cc(C)c2c(n1)sc1c(Nc3ccc(Cl)cc3)ncnc12 | < 0.01 µM | > 100 µM
Cc1ccc(-c2c(C#N)c(-c3ccc(C)cc3)n(NS(=O)(=O)c3ccccc3)c(=O)c2C#N)cc1 | – | > 100 µM
C[n+]1c2ccc(Cl)cc2nc2cc(-c3ccccc3)ccc21 | – | 35.5 µM
COc1cc(C2C3C=CC=C4CC=CC(=C43)C3CCC(=O)N32)cc(OC)c1OC (stereo not drawn) | – | > 100 µM

These compounds were tested on SF-295 CNS (assay: DTP human tumour cell line panel, 48 h).

Structure (SMILES) | GI50 | TGI
CC1=C(C(=O)Nc2ccc(F)c(Cl)c2)C(c2ccccc2O)NC(=S)N1 (stereo not drawn) | 35.4 µM | > 50 µM
c1ccc(N=C(N2CCCC2)N(CCN2CCCC2)c2ccccc2)cc1 | – | 35.6 µM
Cc1cc(C)c2c(n1)sc1c(Nc3ccc(Cl)cc3)ncnc12 | 0.0209 µM | > 100 µM
COc1cc(/C=C/C(=O)c2ccc(O)c(OC)c2)ccc1O | – | 49 µM
Cc1ccc(-c2c(C#N)c(-c3ccc(C)cc3)n(NS(=O)(=O)c3ccccc3)c(=O)c2C#N)cc1 | – | > 100 µM
C[n+]1c2ccc(Cl)cc2nc2cc(-c3ccccc3)ccc21 | – | 11.5 µM
COc1cc(C2C3C=CC=C4CC=CC(=C43)C3CCC(=O)N32)cc(OC)c1OC (stereo not drawn) | – | > 100 µM

What follows are compounds tested on SF-539 CNS (assay: DTP human tumour cell line panel, 48 h).

Structure (SMILES) | GI50 | TGI
Cc1cc(C)c2c(n1)sc1c(Nc3ccc(Cl)cc3)ncnc12 | < 10 nM | 0.0882 µM
Cc1ccc(-c2c(C#N)c(-c3ccc(C)cc3)n(NS(=O)(=O)c3ccccc3)c(=O)c2C#N)cc1 | – | 61.2 µM
C[n+]1c2ccc(Cl)cc2nc2cc(-c3ccccc3)ccc21 | – | 34 µM
COc1cc(C2C3C=CC=C4CC=CC(=C43)C3CCC(=O)N32)cc(OC)c1OC (stereo not drawn) | – | > 100 µM

Each compound was assayed on SK-MEL-2 melanoma (assay: DTP human tumour cell line panel, 48 h).

Structure (SMILES) | GI50 | TGI
CC1=C(C(=O)Nc2ccc(F)c(Cl)c2)C(c2ccccc2O)NC(=S)N1 (stereo not drawn) | 23.6 µM | > 50 µM
c1ccc(N=C(N2CCCC2)N(CCN2CCCC2)c2ccccc2)cc1 | – | > 100 µM
Cc1cc(C)c2c(n1)sc1c(Nc3ccc(Cl)cc3)ncnc12 | > 100 µM | > 100 µM
COc1cc(/C=C/C(=O)c2ccc(O)c(OC)c2)ccc1O | – | 42.6 µM
Cc1ccc(-c2c(C#N)c(-c3ccc(C)cc3)n(NS(=O)(=O)c3ccccc3)c(=O)c2C#N)cc1 | – | > 100 µM
C[n+]1c2ccc(Cl)cc2nc2cc(-c3ccccc3)ccc21 | – | 46.2 µM
COc1cc(C2C3C=CC=C4CC=CC(=C43)C3CCC(=O)N32)cc(OC)c1OC (stereo not drawn) | – | > 100 µM

These compounds were tested on SK-MEL-28 melanoma (assay: DTP human tumour cell line panel, 48 h).

Structure (SMILES) | TGI
c1ccc(N=C(N2CCCC2)N(CCN2CCCC2)c2ccccc2)cc1 | > 100 µM
